Measurements: article PMC7441570 (Chemical biology & drug design, 2019)

Legend:
[1] = in vitro; settings: human, Caco-2
[2] = biological target: HIV-1 RNase H; settings: read-out: HIV-1 RNase H IC50; in vitro; ref Budihas et al., 2005; cited from earlier work
[3] = test system: bacterial (Escherichia coli) RNase H; settings: read-out: bacterial (Escherichia coli) RNase H IC50; ref Budihas et al., 2005; cited from earlier work
[4] = biological target: human RNase H; settings: read-out: human RNase H IC50; ref Budihas et al., 2005; cited from earlier work

Papp [1] | recovery [1] | Compound | IC50 [2] | IC50 [3] | IC50 [4]
16.3 ×10⁻⁶ cm/s | > 93% | COCCc1ccc(OCC(O)CNC(C)C)cc1 (stereo not shown) [metoprolol] |  |  | 
0.11 ×10⁻⁶ cm/s | > 93% | CC(C)(C)NCC(O)COc1cccc2c1CC(O)C(O)C2 (stereo not shown) [nadolol] |  |  | 
 |  | CC(C)c1ccc(O)c(=O)c(O)c1 [β-thujaplicinol] | ~0.2 µM | 50 µM | 5.7 µM
